Laboratory results from US8088806B2 (Achillion Pharmaceuticals, Inc., priority 2005, dated 2012).
Where a name gives a salt, the structure may show the parent alone.

What follows are molecules tested on HCV replicon (assay: Replicon based assay of HCV replication inhibition (NPT ELISA)). Details: Hepatitis C virus, Huh-7, 72 h, Table I; Huh-7 HCV replicon-containing cells, three days; read-out: Activity.
Format: cell-based, Hepatitis C virus
In short: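 Huh-7 cells carrying a bicistronic HCV replicon (neo, EMCV-IRES-driven NS3–NS5B) treated overnight after seeding with usually 6 concentrations, 10 to 0.03 micromolar, for three days at 37° C without G418. Replication read as NPT level by captured ELISA; matched-DMSO wells and interferon alpha as controls.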

Structure (SMILES) | EC50 [nM]
CCCCCOc1ccc(Nc2nc(-c3ccc(C(=O)OC)cn3)cs2)cc1C(F)(F)F [compound 211, methyl 6-(2-(3-(trifluoromethyl)-4-(pentyloxy)phenylamino)thiazol-4-yl)pyridine-3-carboxylate] | < 1000
CCCCCOc1ccc(Nc2nc(-c3ccc(C(=O)O)cn3)cs2)cc1C(F)(F)F [compound 213, 6-(2-(3-(trifluoromethyl)-4-(pentyloxy)phenylamino)thiazol-4-yl)pyridine-3-carboxylic acid] | < 1000
FC(F)Oc1ccc(-c2csc(Nc3cccnc3)n2)cc1 [compound 214, N-(4-(4-(difluoromethoxy)phenyl)thiazol-2-yl)pyridin-3-amine] | > 10000
CCCCCOc1ccc(Nc2nc(-c3ccc(C(=O)N(C)C)cn3)cs2)cc1C(F)(F)F [compound 215, 6-(2-(3-(trifluoromethyl)-4-(pentyloxy)phenylamino)thiazol-4-yl)-N,N-dimethylpyridine-3-carboxamide] | < 1000
CCCCCOc1ccc(Nc2nc(CN3CCNC(=O)C3)cs2)cc1C(F)(F)F [compound 216, 4-((2-(3-(trifluoromethyl)-4-(pentyloxy)phenylamino)thiazol-4-yl)methyl)piperazin-2-one] | < 1000
CCCCCOc1ccc(Nc2nc(CN3CCN(C)CC3)cs2)cc1C(F)(F)F [compound 217, N-(3-(trifluoromethyl)-4-(pentyloxy)phenyl)-4-((4-methylpiperazin-1-yl)methyl)thiazol-2-amine] | < 1000
CCCCCOc1ccc(Nc2nc(CN(C)CC(N)=O)cs2)cc1C(F)(F)F [compound 218, 2-(N-((2-(3-(trifluoromethyl)-4-(pentyloxy)phenylamino)thiazol-4-yl)methyl)-N-methylamino)acetamide] | < 1000
CCCCCOc1ccc(Nc2nc(-c3ccc(C(=O)N(C)CC(N)=O)nc3)cs2)cc1C(F)(F)F [compound 221, 5-(2-(3-(trifluoromethyl)-4-(pentyloxy)phenylamino)thiazol-4-yl)-N-(carbamoylmethyl)-N-methylpyridine-2-carboxamide] | < 1000
CCCCCOc1ccc(Nc2nc(-c3ccc(C(=O)N4CCNC(=O)C4)nc3)cs2)cc1C(F)(F)F [compound 222] | < 1000
CCCCCOc1ccc(Nc2nc(-c3cn4ccccc4n3)cs2)cc1C(F)(F)F [compound 223, N-(3-(trifluoromethyl)-4-(pentyloxy)phenyl)-4-(H-imidazo[1,2-a]pyridin-2-yl)thiazol-2-amine] | < 1000

Same assay, conditions: Hepatitis C virus, replicon based assay of HCV replication inhibition; Table II; read-out: Activity

Structure (SMILES) | EC50 [nM]
CCCCCOc1ccc(Nc2nc(C3CCCN(C(=O)OC(C)(C)C)C3)cs2)cc1C(F)(F)F (centres unmarked) [compound 224, tert-butyl 3-(2-(4-(pentyloxy)-3-(trifluoromethyl)phenyl-amino)thiazol-4-yl)piperidine-1-carboxylate] | < 1000
CCCCCOc1ccc(Nc2nc(C3CCCNC3)cs2)cc1C(F)(F)F (centres unmarked) [compound 225, N-(4-(pentyloxy)-3-(trifluoromethyl)phenyl)-4-(piperidin-3-yl)thiazol-2-amine hydrochloride] | 1000 to 10000
CCCCCOc1ccc(Nc2nc(C3CCCN3C(=O)C(F)(F)F)cs2)cc1C(F)(F)F (centres unmarked) [compound 226, 2,2,2-trifluoro-1-(2-(2-(4-(pentyloxy)-3(trifluoromethyl)phenyl-amino)thiazol-4-yl)pyrrolidin-1-yl)ethanone] | 1000 to 10000
CCCCCOc1ccc(Nc2nc(-c3cnc4scc(C)n34)cs2)cc1C(F)(F)F [compound 227, 4-(3-methylimidazo[1,2-b]thiazol-5-yl)-N-(4-(pentyloxy)-3-(trifluoromethyl)phenyl)thia-zol-2-amine] | < 1000
CCCCCOc1ccc(Nc2nc(C3=CSC4=NCCN34)cs2)cc1C(F)(F)F [compound 228, 4-(5,6-dihydroimidazo[2,1-b]thiazol-3-yl)-N-(4-(pentyloxy)-3-(trifluoromethyl)phenyl)thia-zol-2-amine] | < 1000
CCCCCOc1ccc(Nc2nc(C3=NN=C(N)SC3)cs2)cc1C(F)(F)F [compound 229, 5-(2-(4-(pentyloxy)-3-(trifluoromethyl)phenyl-amino)thiazol-4-yl)-6H-1,3,4-thiazdiazin-2-amine] | < 1000
CCCCCOc1ccc(Nc2nc(CN3CCCCC3)cs2)cc1C(F)(F)F [compound 230, N-(4-(pentyloxy)-3-(trifluoromethyl)phenyl)-4-(piperidin-1-ylmethyl)thiazol-2-amine] | 1000 to 10000
CCCCCOc1ccc(Nc2nc(CN3CCC(C)CC3)cs2)cc1C(F)(F)F [compound 231, 4-((4-methylpiperidin-1-yl)methyl)-N-(4-(pentyloxy)-3-(trifluoromethyl)phenyl)thia-zol-2-amine] | < 1000
CCCCCOc1ccc(Nc2nc(C(=O)Nc3ccncc3)cs2)cc1C(F)(F)F [compound 232, 2-(4-(pentyloxy)-3-(trifluoromethyl)phenyl-amino)-N-(pyridin-4-yl)thiazole-4-carboxamide] | 1000 to 10000
CCCCCOc1ccc(Nc2nc(C(=O)Nc3ccc(C(F)(F)F)nc3)cs2)cc1C(F)(F)F [compound 233, 2-(4-(pentyloxy)-3-(trifluoromethyl)phenyl-amino)-N-(6-(trifluoromethyl)pyridin-3-yl)thiazole-4-carboxamide] | > 10000
CCCCCOc1ccc(Nc2nc(-c3ccc(CN(C)C)cc3)cs2)cc1C(F)(F)F [compound 234, 4-(4-((dimethylamino)methyl)phenyl)-N-(4-(pentyloxy)-3-(trifluoromethyl)phenyl)thia-zol-2-amine] | < 1000
CCCCCOc1ccc(Nc2nc([C@H]3CCCN(C)C3)cs2)cc1C(F)(F)F [compound 235, (S)-4-(1-methylpiperidin-3-yl)-N-(4-(pentyloxy)-3-(trifluoromethyl)phenyl)thia-zol-2-amine] | < 1000
CN1CCC[C@H](c2csc(Nc3ccc(Oc4ccccc4)cc3)n2)C1 [compound 236, (S)-4-(1-methylpiperidin-3-yl)-N-(4-phenoxyphenyl)thiazol-2-amine] | 1000 to 10000
CN1CCC[C@H](c2csc(Nc3cccc(OCc4ccccc4)c3)n2)C1 [compound 237, (S)-N-(3-(benzyloxy)phenyl)-4-(1-methylpiperidin-3-yl)thiazol-2-amine] | 1000 to 10000
FC(F)(F)c1cc(Nc2nc(-c3cccnc3)cs2)ccc1OC1CCCC1 [compound 238, N-(4-(cyclopentyloxy)-3-(trifluoromethyl)phenyl)-4-(pyridin-3-yl)thiazol-2-amine] | < 1000
CC(C)COc1ccc(Nc2nc(-c3cccnc3)cs2)cc1C(F)(F)F [compound 239, N-(4-isobutoxy-3-(trifluoromethyl)phenyl)-4-(pyridin-3-yl)thiazol-2-amine] | < 1000
FC(F)(F)c1cc(Nc2nc(-c3cccnc3)cs2)ccc1OCC1CC1 [compound 240, N-(4-(cyclopropylmethoxy)-3-(trifluoromeethyl)phenyl)-4-(pyridin-3-yl)thiazol-2-amine] | < 1000
Fc1ccc(-c2csc(Nc3ccc(OC4CCCC4)c(C(F)(F)F)c3)n2)cc1 [compound 241, N-(4-(cyclopentyloxy)-3-(trifluoromethyl)phenyl)-4-(4-fluorophenyl)thiazol-2-amine] | < 1000
CC(C)COc1ccc(Nc2nc(-c3ccc(F)cc3)cs2)cc1C(F)(F)F [compound 242, 4-(4-fluorophenyl)-N-(4-isobutoxy-3-(trifluoromethyl)phenyl)thia-zol-2-amine] | < 1000
Fc1ccc(-c2csc(Nc3ccc(OCC4CC4)c(C(F)(F)F)c3)n2)cc1 [compound 243, N-(4-(cyclopropylmethoxy)-3-(trifluoromethyl)phenyl)-4-(4-fluorophenyl)thiazol-2-amine] | < 1000
CC(C)COc1ccc(Nc2nc(-c3ccc(CC(=O)O)s3)cs2)cc1C(F)(F)F [compound 244, 2-(5-(2-(4-isobutoxy-3-(trifluoromethyl)phenyl-amino)thiazol-4-yl)thiophen-2-yl)acetic acid] | < 1000
Cc1sc(Nc2ccc(OC3CCCC3)c(C(F)(F)F)c2)nc1-c1ccc(CC(=O)O)cc1 [compound 245, 2-(4-(2-(4-(cyclopentyloxy)-3-(trifluoromethyl)phenyl-amino)-5-methylthiazol-4-yl)phenyl)acetic acid] | < 1000
Cc1sc(Nc2ccc(OCC(C)C)c(C(F)(F)F)c2)nc1-c1ccc(CC(=O)O)cc1 [compound 246, 2-(4-(2-(4-isobutoxy-3-(trifluoromethyl)phenyl-amino)-5-methylthiazol-4-yl)phenyl)acetic acid] | 1000 to 10000
O=C(O)Cc1ccc(-c2csc(Nc3ccc(OC4CCCC4)c(C(F)(F)F)c3)n2)s1 [compound 247, 2-(5-(2-(4-(cyclopentyloxy)-3-(trifluoromethyl)phenyl-amino)-thiazol-4-yl)thiophen-2-yl)acetic acid] | < 1000
COc1ccc(-c2csc(Nc3ccc(OC4CCCC4)c(C(F)(F)F)c3)n2)cc1 [compound 248, N-(4-(cyclopentyloxy)-3-(trifluoromethyl)phenyl)-4-(4-methoxyphenyl)thiazol-2-amine] | < 1000
COc1ccc(-c2csc(Nc3ccc(OCC(C)C)c(C(F)(F)F)c3)n2)cc1 [compound 249, N-(4-isobutoxy-3-(trifluoromethyl)phenyl)-4-(4-methoxyphenyl)thiazol-2-amine] | < 1000
COc1ccc(-c2csc(Nc3ccc(OCC4CC4)c(C(F)(F)F)c3)n2)cc1 [compound 250, N-(4-(cyclopropylmethoxy)-3-(trifluoromethyl)phenyl)-4-(4-methoxyphenyl)thiazol-2-amine] | < 1000
O=C1COc2ccc(-c3csc(Nc4ccc(OC5CCCC5)c(C(F)(F)F)c4)n3)cc2N1 [compound 251, 6-(2-(4-(cyclopentyloxy)-3-(trifluoromethyl)phenyl-amino)thiazol-4-yl)-2H-benzo[b][1,4]oxazin-3(4H)-one] | < 1000
